The values that follow come from publication PMC9306349, “A Process for the Design and Development of Novel Bone Morphogenetic Protein-7 (BMP-7) Mimetics With an Example: THR-184” (Frontiers in Pharmacology, 2022).

Where two headings read alike, the source gives them in different places. Marks after values point to notes of the source that are not given here. Bridge positions count the residues as written; N and C are the ends. Peptide text beside a SMILES is read from it.

One data set has as its system cancer growth. The data set is described as follows: Preclinical overview: cancer growth. From the text: (§1) TABLE 2 THR-184 overview.
For another data set, the target named is T1, CYP450 1A2 (Homo sapiens, UniProt P05177).
T1 sequence (P05177 1-516): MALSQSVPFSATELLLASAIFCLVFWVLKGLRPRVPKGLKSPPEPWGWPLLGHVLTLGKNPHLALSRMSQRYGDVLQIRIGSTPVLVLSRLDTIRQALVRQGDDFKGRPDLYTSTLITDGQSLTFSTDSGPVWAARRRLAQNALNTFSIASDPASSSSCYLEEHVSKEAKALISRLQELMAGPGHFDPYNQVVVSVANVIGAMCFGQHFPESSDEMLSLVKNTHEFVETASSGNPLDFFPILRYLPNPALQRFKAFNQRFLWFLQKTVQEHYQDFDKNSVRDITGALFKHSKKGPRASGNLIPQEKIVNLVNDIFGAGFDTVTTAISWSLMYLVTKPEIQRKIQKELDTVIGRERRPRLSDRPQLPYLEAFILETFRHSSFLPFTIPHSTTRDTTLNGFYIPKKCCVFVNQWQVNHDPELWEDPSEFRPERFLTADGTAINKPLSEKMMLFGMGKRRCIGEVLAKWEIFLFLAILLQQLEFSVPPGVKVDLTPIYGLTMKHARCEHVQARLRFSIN
It counts as in vitro ADME.
Excerpt: as §1

The conditions of data set [1]: cited from earlier work.
A short description of a further data set: Off-target survey. The conditions noted are these: 114 targets surveyed.
Excerpt: as §1

Data set [2] has as its system adult healthy male and female volunteers. The conditions noted are these: ref Himmelfarb et al., 2018, cited from earlier work. As for the experimental part: In the second study, THR-P-428 (MAD), THR-184 was administered as a slow intravenous infusion in a total of 24 adult healthy male and female volunteers, once daily over five consecutive days. THR-184 or the placebo was administered on the morning after a 10-h overnight fast. The solution was administered by slow injection via an indwelling catheter, at an infusion rate of 1 ml/min over 60 min. Three dose levels were studied: 0.3 mg/kg, 1 mg/kg, and 3 mg/kg. Adverse events were recorded continuously during the study.

In data set [3] the test system is patients having major cardio-vascular surgery requiring the cardiopulmonary pump. The conditions noted are these: ref Himmelfarb et al., 2018, cited from earlier work.
Data set [4] can be described thus: Stability of THR-184 in human plasma with and without ACE inhibitor. It counts as in vitro ADME. The conditions noted are these: compound administered with an ACE inhibitor, read-out: serum half-life. The text has this:
Protease degradation of drug candidates can shorten their in-plasma half-life to the point that therapeutic exposure is severely compromised resulting in loss of efficacy.

Data set [5] concerns patients having major cardio-vascular surgery requiring the cardiopulmonary pump. Kind of data set: Phase II clinical trial NCT01830920, AKI after cardio-vascular surgery with cardiopulmonary pump. The conditions noted are these: clinical trial pharmacokinetic data; large variability of C Max and AUC. It counts as in vivo, human. From the text:
The objective of the Phase II clinical trial, NCT01830920, ([Thrasos Innovation, Inc, 2013]), was to establish the dose, safety, and preliminary efficacy of THR-184 in a targeted patient population having major cardio-vascular surgery requiring the use of the cardiopulmonary pump The primary outcome of this clinical trial was the proportion of patients who develop AKI according to the KDIGO criteria ([Kidney Disease: Improving Global Outcomes (KDIGO) Acute Kidney Injury Work Group, 2012]). […] Use of urinary creatinine is not part of the KDIGO AKI criteria, but rather it is the urinary output that is part of the AKI definition. […] The clinical trial included serum samples for the analysis of KIM-1 and NGAL as exploratory endpoints, but there are as yet no published results from those samples.
SAE: number of Serious Adverse Events.

The next data set has as its system hemodynamics.
Excerpt: as §1

The next data set relates to bleeding time.
Excerpt: as §1

In the next data set the test system is wound healing.
Excerpt: as §1

The test system of data set [6] is adult healthy male and female volunteers. The conditions noted are these: ref Himmelfarb et al., 2018, cited from earlier work. Here is the method:
In the first study, THR-P-427 (SAD), the drug (THR-184) was administered as slow intravenous infusions in a total of 40 adult healthy male and female volunteers. The study drug or placebo was administered once on the morning after a 10-h overnight fast. The solution was administered by slow injection via an indwelling catheter, at an infusion rate of 1 ml/min over 60 min. Five dose levels were studied: 0.3 mg/kg, 1 mg/kg, 3 mg/kg, 6 mg/kg and 10 mg/kg. Adverse events were recorded continuously during the study.
This is another data set of the same source.

The target of the next data set is CYP450 3A4 (Homo sapiens, UniProt P08684). The data set is described as follows: CYP450 isoform effect. It counts as in vitro ADME.
CYP450 3A4, sequence (P08684 whole entry, canonical isoform): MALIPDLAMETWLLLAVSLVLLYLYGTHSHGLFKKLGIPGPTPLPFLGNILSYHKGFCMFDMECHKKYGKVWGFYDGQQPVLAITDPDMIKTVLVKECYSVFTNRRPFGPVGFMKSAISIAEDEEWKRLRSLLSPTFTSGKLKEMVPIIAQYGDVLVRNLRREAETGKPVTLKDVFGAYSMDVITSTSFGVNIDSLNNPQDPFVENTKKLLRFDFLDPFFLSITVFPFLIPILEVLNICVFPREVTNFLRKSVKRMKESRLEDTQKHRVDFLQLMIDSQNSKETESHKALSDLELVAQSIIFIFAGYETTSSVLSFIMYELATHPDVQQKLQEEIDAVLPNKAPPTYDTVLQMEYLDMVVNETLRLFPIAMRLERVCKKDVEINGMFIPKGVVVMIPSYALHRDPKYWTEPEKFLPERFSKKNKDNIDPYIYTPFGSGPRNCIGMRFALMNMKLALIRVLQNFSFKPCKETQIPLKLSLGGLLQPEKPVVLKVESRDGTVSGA
Excerpt: as §1

A further data set has as its target CYP450 2D6 (Homo sapiens, UniProt P10635). Kind of data set: CYP450 isoform effect. It counts as in vitro ADME.
Excerpt: as §1

The target of the next data set is CYP450 2C19 (Homo sapiens, UniProt P33261). Kind of data set: CYP450 isoform effect. It counts as in vitro ADME.
CYP450 2C19, sequence (P33261 whole entry, canonical isoform): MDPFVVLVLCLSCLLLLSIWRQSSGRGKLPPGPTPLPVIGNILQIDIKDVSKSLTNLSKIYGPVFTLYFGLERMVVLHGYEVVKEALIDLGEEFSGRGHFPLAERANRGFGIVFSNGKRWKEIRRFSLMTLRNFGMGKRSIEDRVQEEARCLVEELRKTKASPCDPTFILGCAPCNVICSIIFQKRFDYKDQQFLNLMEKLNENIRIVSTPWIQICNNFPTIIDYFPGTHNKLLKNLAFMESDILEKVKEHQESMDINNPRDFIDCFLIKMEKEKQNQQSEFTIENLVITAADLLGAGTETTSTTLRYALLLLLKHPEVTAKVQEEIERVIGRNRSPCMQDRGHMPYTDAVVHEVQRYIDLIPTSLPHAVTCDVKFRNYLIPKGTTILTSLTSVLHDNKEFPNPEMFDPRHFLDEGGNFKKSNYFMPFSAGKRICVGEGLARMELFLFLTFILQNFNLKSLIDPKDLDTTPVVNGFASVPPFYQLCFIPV
Excerpt: as §1

In a further data set the target is CYP450 2C9 (Homo sapiens, UniProt P11712). Kind of data set: CYP450 isoform effect. The data set is classed as in vitro ADME.
CYP450 2C9, sequence (P11712 whole entry, canonical isoform): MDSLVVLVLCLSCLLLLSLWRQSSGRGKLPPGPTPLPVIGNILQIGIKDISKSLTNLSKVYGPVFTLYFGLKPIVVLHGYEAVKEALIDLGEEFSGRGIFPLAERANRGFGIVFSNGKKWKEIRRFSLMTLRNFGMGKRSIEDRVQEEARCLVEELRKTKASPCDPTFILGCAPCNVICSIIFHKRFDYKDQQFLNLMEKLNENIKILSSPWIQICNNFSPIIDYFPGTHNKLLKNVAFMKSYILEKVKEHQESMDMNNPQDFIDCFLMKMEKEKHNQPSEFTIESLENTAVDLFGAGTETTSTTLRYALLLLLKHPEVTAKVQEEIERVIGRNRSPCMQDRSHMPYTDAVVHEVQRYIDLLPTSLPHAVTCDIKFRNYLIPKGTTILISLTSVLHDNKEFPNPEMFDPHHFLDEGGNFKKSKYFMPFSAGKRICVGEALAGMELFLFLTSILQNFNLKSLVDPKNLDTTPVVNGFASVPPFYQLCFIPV
Excerpt: as §1

The test system of a further data set is ectopic bone formation. Kind of data set: Rat implant assay of ectopic bone formation. Conditions: implanted in muscle pocket (Hydrogel or collagen carrier device), implants removed day 14, histology toluidine blue. It counts as in vivo. As for the experimental part: FIGURE 2 Failure of BMP-7 mimetic (THR-123) to induce ectopic bone formation in rat implant assay: This assay is based on the ability of BMP-7 to induce ectopic bone formation in the rat and was carried out as described earlier (The Journal of Biological Chemistry, Vol. 267, pp. 20352-20362,1992) to determine in vivo efficacy of THR-123. Briefly, bovine bone matrix (collagen carrier)/BMP-7 or Hydrogel/BMP-7 or Hydrogel/THR-123, devices (all lyophilized) were implanted in muscle pocket. […] This work was supported by Thrasos Therapeutics.

The mark [7] stands for this setting: occurred equally in placebo and THR-184 treated subjects.
Setting [8] is: Arm 4 High Dose 0.46/0.02 mg/kg.
The mark [9] stands for this setting: Arm 5 Highest Dose 0.46/0.46 mg/kg.

CYP450 2D6, sequence (P10635 whole entry, canonical isoform): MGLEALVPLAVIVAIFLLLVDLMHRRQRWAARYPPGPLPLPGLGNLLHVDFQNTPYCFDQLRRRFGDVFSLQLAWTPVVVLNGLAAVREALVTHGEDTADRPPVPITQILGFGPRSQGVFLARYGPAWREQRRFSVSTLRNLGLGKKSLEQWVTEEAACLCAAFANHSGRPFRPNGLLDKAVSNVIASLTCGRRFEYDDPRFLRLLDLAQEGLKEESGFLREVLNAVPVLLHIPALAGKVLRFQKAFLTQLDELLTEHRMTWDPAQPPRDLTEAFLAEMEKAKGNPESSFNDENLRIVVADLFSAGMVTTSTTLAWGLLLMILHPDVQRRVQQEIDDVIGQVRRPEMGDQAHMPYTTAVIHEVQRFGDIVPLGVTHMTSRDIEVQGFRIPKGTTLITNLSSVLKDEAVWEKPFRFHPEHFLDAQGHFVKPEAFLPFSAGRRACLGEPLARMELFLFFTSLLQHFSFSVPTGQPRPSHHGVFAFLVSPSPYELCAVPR

`CC(C)C[C@@H]1NC(=O)[C@H](C(C)C)NC(=O)[C@H](CO)NC(=O)[C@H](CO)NC(=O)[C@H](CO)NC(=O)[C@H](CC(N)=O)NC(=O)[C@H](CC(=O)O)NC(=O)[C@H](Cc2ccc(O)cc2)NC(=O)[C@H](Cc2ccc(O)cc2)NC(=O)[C@@H](N)CSSC[C@@H](C(=O)N[C@@H](CCCCN)C(=O)N[C@@H](CCCNC(=N)N)C(=O)N[C@@H](Cc2ccc(O)cc2)C(=O)N[C@@H](CCCNC(=N)N)C(=O)N[C@@H](CO)C(=O)O)NC1=O` [THR-184] (H-CYYDNSSSVLCKRYRS-OH; disulfide 1-11): the cancer growth result in the data set with cancer growth is “Does not promote cancer growth”. For the same molecule, the “effect on CYP450 1A2” value at CYP450 1A2 was “Has no effect on key CYP450 isoforms (1A2, 2C19, 2C9, 2D6, 3A4)”. For the same molecule, the “Human Plasma Stability: t1/2” value in data set [1] is reported as 6 min. Moreover, the off-target interactions result in the data set “Off-target survey” is “Has no off-target interactions (114 targets surveyed)”. Also, the serious adverse events result in data set [2] (60 min iv infusion once daily for five days, 0.3-3 mg/kg, healthy volunteers) is listed as “no serious adverse events observed”; in [6] (single 60 min iv infusion, 0.3-10 mg/kg, healthy volunteers), “no serious adverse events observed”. The entries for the “most frequently observed adverse event” value in data set [2] (setting [7]) and in data set [6] (setting [7]) were “somnolence” and “headache”, respectively. Further, the Deaths is recorded as 4 # in [3] (Arm 2 Low Dose 0.02/0.02 mg/kg), 5 # in data set [3] (Arm 3 Mid Dose 0.12/0.02 mg/kg), 4 # in data set [3] (setting [8]) and 5 # in [3] (setting [9]). The “SAE > 1 (Serious Adverse Events)” value in data set [3] (Arm 2 Low Dose 0.02/0.02 mg/kg) was 46.7%; in [3] (Arm 3 Mid Dose 0.12/0.02 mg/kg), 59.6%; in data set [3] (setting [8]) it was 42.0%; in [3] (setting [9]), 41.0%. The half-life (commonly the time needed for the level to fall by half in the phase considered) in [4] was 1 h. Also, the “relationship of dose to serum levels” value in [5] is recorded as “clear relationship of the dose to serum levels of the compound”. In the data set on hemodynamics, the hemodynamics result is given as “Does not affect hemodynamics”. In addition, in the data set with bleeding time, the bleeding time entry is “Does not affect bleeding time”. In the data set on wound healing, the wound healing result is “Does not inhibit wound healing”. Besides, the “effect on CYP450 3A4” value on CYP450 3A4 is given as “Has no effect on key CYP450 isoforms (1A2, 2C19, 2C9, 2D6, 3A4)”. In addition, the “effect on CYP450 2D6” value at CYP450 2D6 is “Has no effect on key CYP450 isoforms (1A2, 2C19, 2C9, 2D6, 3A4)”. At CYP450 2C19, the “effect on CYP450 2C19” value was “Has no effect on key CYP450 isoforms (1A2, 2C19, 2C9, 2D6, 3A4)”. The “effect on CYP450 2C9” value on CYP450 2C9 is given as “Has no effect on key CYP450 isoforms (1A2, 2C19, 2C9, 2D6, 3A4)”.

B1: BMP-7: Bone Morphogenetic Protein-7, positive control in rat implant assay (protein, UniProt P18075 293-431, looked up)
Bone morphogenetic protein 7: STGSKQRSQNRSKTPKNQEALRMANVAENSSSDQRQACKKHELYVSFRDLGWQDWIIAPEGYAAYYCEGECAFPLNSYMNATNHAIVQTLVHFINPETVPKPCCAPTQLNAISVLYFDDSSNVILKKYRNMVVRACGCH
Turning to B1, in the data set on ectopic bone formation, the ectopic bone formation entry is given as “induced bone formation”.
